Results from patent publication US12692230B2, “(1 h-indol-5-yl)acrylamide derivatives as inhibitors of TEAD proteins and the hippo-YAP1/TAZ signaling cascade for the treatment of cancer” (Sanofi, priority 2020, dated 2026).

tested on: TEAD responsive promoter element (8XGTIIC-Luciferase; YAP1-TEAD and TAZ-TEAD activity); test: TEAD-Luciferase reporter assay; assay type: cell-based; conditions: Homo sapiens; luciferase activity in tumor cell lines with stable integration of the 8XGTIIC-Luciferase construct; 10 doses between 1 and 10000 nM, 48 hrs
Excerpt: TEAD-Luciferase Reporter Assay
Luciferase-based gene reporter assays were used, employing the TEAD responsive promoter element that are stably integrated to different human tumor cell lines in order to monitor YAP1-TEAD and TAZ-TEAD activity and to study YAP1/TAZ-TEAD activity modulation by small molecule compounds. Luciferase-based gene reporter assays employing the GAPDH promoter element and stably integrated to different human tumor cell lines are used as counter screen control cell lines.
Tumor cell lines with stable integration of the 8XGTIIC-Luciferase construct (Dupont et al., Nature 2011) or the GAPDH-Luciferase control plasmid, are seeded in culture medium in 96-well plates at a density of 8000 cells/well. Following an overnight incubation in a 37° C., 5% CO2 growth chamber, cells are treated with compounds described above at 10 doses ranging between 1 and 10000 nM for 48 hrs. After compound incubation, cells are lysed with Bright-Glo Luciferase Assay System (Promega E2620) and luciferase activity is measured using a luminescent plate reader.
The inhibitory activity of the compounds with respect to luciferase activity is given by the concentration which inhibits 50% of activity of non-treated cells. IC50s are determined with a nonlinear regression model on XLfit software analysis (IDBS, UK).

Row | SMILES | IC50 [nM]
1 | C=CC(=O)Nc1ccc2c(ccn2-c2ccc(C(F)(F)F)cn2)c1 [Example 46, N-(1-(5-(trifluoromethyl)pyridin-2-yl)-1H-indol-5-yl)acrylamide] | > 10000
2 | C=CC(=O)Nc1ccc2c(ccn2-c2cccnc2)c1 [Example 47, N-(1-(pyridin-3-yl)-1H-indol-5-yl)acrylamide] | > 10000
3 | C=CC(=O)Nc1ccc2c(ccn2-c2ccc(F)cc2)c1 [Example 48, N-(1-(4-fluorophenyl)-1H-indol-5-yl)acrylamide] | > 10000
4 | C=CC(=O)Nc1ccc2c(ccn2-c2ccc(F)c(F)c2)c1 [Example 49, N-(1-(3,4-difluorophenyl)-1H-indol-5-yl)acrylamide] | > 10000
5 | C=CC(=O)Nc1ccc2c(ccn2-c2cccc(S(C)(=O)=O)c2)c1 [Example 50, N-(1-(3-(methylsulfonyl)phenyl)-1H-indol-5-yl)acrylamide] | 4680
6 | C=CC(=O)Nc1ccc2c(ccn2-c2ccc(C#N)cc2)c1 [Example 51, N-(1-(4-cyanophenyl)-1H-indol-5-yl)acrylamide] | 313
7 | C=CC(=O)Nc1ccc2c(ccn2Cc2cc(F)cc(F)c2)c1 [Example 52, N-(1-(3,5-difluorobenzyl)-1H-indol-5-yl)acrylamide] | 41
8 | C=CC(=O)Nc1ccc2c(ccn2Cc2ccc(F)c(F)c2)c1 [Example 53, N-(1-(3,4-difluorobenzyl)-1H-indol-5-yl)acrylamide] | 33
9 | C=CC(=O)Nc1ccc2c(ccn2Cc2cccc(C#N)c2)c1 [Example 54, N-(1-(3-cyanobenzyl)-1H-indol-5-yl)acrylamide] | 388
10 | C=CC(=O)Nc1ccc2c(ccn2Cc2ccc(C(F)(F)F)o2)c1 [Example 55, N-(1-((5-(trifluoromethyl)furan-2-yl)methyl)-1H-indol-5-yl)acrylamide] | 185
11 | C=CC(=O)Nc1ccc2c(ccn2Cc2cscn2)c1 [Example 56, N-(1-(thiazol-4-ylmethyl)-1H-indol-5-yl)acrylamide] | ≥ 10000
12 | C=CC(=O)Nc1ccc2c(ccn2Cc2csc(C(F)(F)F)n2)c1 [Example 57, N-(1-((2-(trifluoromethyl)thiazol-4-yl)methyl)-1H-indol-5-yl)acrylamide] | 191
13 | C=CC(=O)Nc1cccc2ccn(Cc3cccc(C(F)(F)F)c3)c12 [Example 58, N-(1-(3-(trifluoromethyl)benzyl)-1H-indol-7-yl)acrylamide] | 2010
14 | C=CC(=O)Nc1ccc2c(ccn2Cc2cccc(S(C)(=O)=O)c2)c1 [Example 59, N-(1-(3-(methylsulfonyl)benzyl)-1H-indol-5-yl)acrylamide] | 2870
15 | C=CC(=O)Nc1ccc2c(c1)c(COC)cn2Cc1cccc(C(F)(F)F)c1 [Example 60, N-(3-(methoxymethyl)-1-(3-(trifluoromethyl)benzyl)-1H-indol-5-yl)acrylamide] | 88
16 | C=CC(=O)Nc1ccc2c(c1)c(C(=O)OC)cn2Cc1cccc(C(F)(F)F)c1 [Example 61, methyl 5-acrylamido-1-(3-(trifluoromethyl)benzyl)-1H-indole-3-carboxylate] | 41
17 | C=CC(=O)Nc1ccc2ccn(-c3cccc(C(F)(F)F)c3)c2c1 [Example 62, N-(1-(3-(trifluoromethyl)phenyl)-1H-indol-6-yl)acrylamide] | 64
18 | C=CC(=O)Nc1ccc2c(ccn2-c2ccc(S(F)(F)(F)(F)F)cc2)c1 [Example 63, N-(1-(4-(pentafluoro-λ6-sulfanyl)phenyl)-1H-indol-5-yl)acrylamide] | 29
19 | C=CC(=O)Nc1ccc2ccn(-c3ccc(C(F)(F)F)cc3)c2c1 [Example 64, N-(1-(4-(trifluoromethyl)phenyl)-1H-indol-6-yl)acrylamide] | 108
20 | C=CC(=O)Nc1ccc2c(ccn2-c2ccc(C(F)(F)F)cc2C)c1 [Example 65, N-(1-(2-methyl-4-(trifluoromethyl)phenyl)-1H-indol-5-yl)acrylamide] | 59
21 | C=CC(=O)Nc1ccc2c(ccn2-c2cc(F)cc(F)c2)c1 [Example 66, N-(1-(3,5-difluorophenyl)-1H-indol-5-yl)acrylamide] | 1850
22 | C=CC(=O)Nc1ccc2c(ccn2-c2cncc(F)c2)c1 [Example 67, N-(1-(5-fluoropyridin-3-yl)-1H-indol-5-yl)acrylamide] | 8540
23 | C=CC(=O)Nc1ccc2c(ccn2-c2ccnc(C(F)(F)F)c2)c1 [Example 68, N-(1-(2-(trifluoromethyl)pyridin-4-yl)-1H-indol-5-yl)acrylamide] | 1090
24 | C=CC(=O)Nc1ccc2c(c1)c(C)cn2-c1ccc(C(F)(F)F)cc1 [Example 69, N-(3-methyl-1-(4-(trifluoromethyl)phenyl)-1H-indol-5-yl)acrylamide] | 9
25 | C=CC(=O)Nc1ccc2c(c1)cc(C)n2-c1ccc(C(F)(F)F)cc1 [Example 70, N-(2-methyl-1-(4-(trifluoromethyl)phenyl)-1H-indol-5-yl)acrylamide] | 12
26 | C=CC(=O)Nc1ccc2c(c1)c(C(N)=O)cn2Cc1cccc(C(F)(F)F)c1 [Example 83, 5-Acrylamido-1-(3-(trifluoromethyl)benzyl)-1H-indole-3-carboxamide] | 1790

The next lines start with the values.

Row | IC50 [nM] | SMILES
27 | 24 | C=CC(=O)N(C)c1ccc2c(c1)cc(C)n2-c1ccc(C(F)(F)F)cc1 [Example 71, N-methyl-N-[2-methyl-1-[4-(trifluoromethyl)phenyl]indol-5-yl]acrylamide]
28 | 15 | C=CC(=O)Nc1ccc2c(c1)c(COC)cn2-c1ccc(C(F)(F)F)cc1 [Example 72, N-(3-(methoxymethyl)-1-(4-(trifluoromethyl)phenyl)-1H-indol-5-yl)acrylamide]
29 | 244 | C=CC(=O)Nc1cc2ccn(-c3ccc(C(F)(F)F)cc3)c2cc1F [Example 73, N-(6-fluoro-1-(4-(trifluoromethyl)phenyl)-1H-indol-5-yl)acrylamide]
30 | 106 | C=CC(=O)N(C)c1ccc2c(ccn2-c2ccc(C(F)(F)F)cc2)c1 [Example 74, N-methyl-N-(1-(4-(trifluoromethyl)phenyl)-1H-indol-5-yl)acrylamide]
31 | 458 | C/C=C/C(=O)Nc1ccc2c(ccn2-c2ccc(C(F)(F)F)cc2)c1 [Example 75, (E)-N-(1-(4-(trifluoromethyl)phenyl)-1H-indol-5-yl)but-2-enamide]
32 | 3830 | CN(C)C/C=C/C(=O)Nc1ccc2c(ccn2-c2ccc(C(F)(F)F)cc2)c1 [Example 76, (E)-4-(dimethylamino)-N-(1-(4-(trifluoromethyl)phenyl)-1H-indol-5-yl)but-2-enamide]
33 | 534 | C=CC(=O)Nc1cc2ccn(-c3ccc(C(F)(F)F)cc3)c2cc1Cl [Example 77, N-(6-chloro-1-(4-(trifluoromethyl)phenyl)-1H-indol-5-yl)acrylamide]
34 | 141 | C=CC(=O)Nc1cc2ccn(Cc3cccc(C(F)(F)F)c3)c2cc1Cl [Example 78, N-(6-chloro-1-(3-(trifluoromethyl)benzyl)-1H-indol-5-yl)acrylamide]
35 | 85 | C=CC(=O)Nc1cc(Cl)c2c(ccn2Cc2cccc(C(F)(F)F)c2)c1 [Example 79, N-(7-chloro-1-(3-(trifluoromethyl)benzyl)-1H-indol-5-yl)acrylamide]
36 | 18 | C=CC(=O)Nc1cc2ccn(Cc3cccc(C(F)(F)F)c3)c2cc1F [Example 80, N-(6-fluoro-1-(3-(trifluoromethyl)benzyl)-1H-indol-5-yl)acrylamide]
37 | 68 | C=CC(=O)Nc1cc(Cl)c2c(ccn2-c2ccc(C(F)(F)F)cc2)c1 [Example 81, N-(7-chloro-1-(4-(trifluoromethyl)phenyl)-1H-indol-5-yl)acrylamide]
38 | 158 | C=CC(=O)Nc1ccc2c(c1)c(CO)cn2-c1ccc(C(F)(F)F)cc1 [Example 82, N-(3-(hydroxymethyl)-1-(4-(trifluoromethyl)phenyl)-1H-indol-5-yl)acrylamide]
39 | 620 | C=CC(=O)Nc1ccc2c(c1)c(C(N)=O)cn2-c1ccc(C(F)(F)F)cc1 [Example 84, 5-Acrylamido-1-(4-(trifluoromethyl)phenyl)-1H-indole-3-carboxamide]
